In patent US8952024B2, “Herbicidal pyrimidone derivatives” (E I du Pont de Nemours and Company, priority 2009, dated 2015):

Legend:
Assay in all cases: Test B pre-/postemergence plant response
Assay type in all cases: in vivo
[1] = tested on: bermudagrass (Cynodon dactylon); settings: for Bermudagrass plant response rating (0 to 100 scale): 62 g ai/ha, 0 is no effect
Procedure, shortened: (§1)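 Greenhouse herbicide screen. Pre- and postemergence (1- to 4-leaf) spray of compound in solvent/surfactant mixture; loam–sand soil for pre, peat/vermiculite medium for post. Visual control rating 0–100 at 13 to 15 days after treatment.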

[2] = tested on: goosegrass (Eleusine indica)
Procedure, shortened: as §1

[3] = tested on: green foxtail (Setaria viridis)
Procedure, shortened: as §1

[4] = tested on: johnsongrass (Sorghum halepense)
Procedure, shortened: as §1

[5] = tested on: kochia (Kochia scoparia)
Procedure, shortened: as §1

[6] = tested on: lambsquarters (Chenopodium album)
Procedure, shortened: as §1

[7] = tested on: large crabgrass (Digitaria sanguinalis)
Procedure, shortened: as §1

[8] = tested on: ragweed (common ragweed, Ambrosia elatior)
Procedure, shortened: as §1

[9] = tested on: soybean (Glycine max)
Procedure, shortened: as §1

[10] = tested on: velvetleaf (Abutilon theophrasti)
Procedure, shortened: as §1

[11] = tested on: wheat (Triticum aestivum)
Procedure, shortened: as §1

[12] = tested on: woolly cupgrass (Eriochloa villosa)
Procedure, shortened: as §1

[13] = tested on: yellow nutsedge (Cyperus esculentus)
Procedure, shortened: as §1

[14] = 31 g ai/ha, postemergence, scale 0 to 100, 0 is no effect, 100 is complete control
[15] = postemergence, 100 is complete control, 13 to 15 days
[16] = Postemergence, 125 g ai/ha, visual rating after 13 to 15 days, scale 0 (no effect) to 100 (complete control)
[17] = Postemergence, 250 g ai/ha, scale 0 to 100 (0 no effect, 100 complete control)
[18] = 62 g ai/ha, postemergence, 0 is no effect, 100 is complete control, 13 to 15 days
[19] = Postemergence, 31 g ai/ha, 0 to 100 scale (0 no effect, 100 complete control)
[20] = Postemergence, 125 g ai/ha, scale 0 to 100 (0 no effect, 100 complete control)
[21] = Postemergence, 250 g ai/ha, scale 0 to 100 (0 no effect, 100 complete control), 13 to 15 days

COCCn1c(-c2ccccc2)ncc(C(=O)C2=C(O)CCCC2=O)c1=O [Compound 85]
Plant response rating, Bermudagrass [1, 14]: 85 | Bermudagrass plant response rating (0 to 100 scale) [1, 15]: 85 | Plant response rating, Bermudagrass [1, 16]: 90 | Plant response rating, Bermudagrass [1, 17]: 90 | Plant response rating, Goosegrass [2, 14]: 70 | Goosegrass plant response rating (0 to 100 scale) [2, 18]: 70 | Plant response rating, Goosegrass [2, 17]: 85 | Plant response rating, Foxtail, Green [3, 14]: 80 | Foxtail, Green plant response rating (0 to 100 scale) [3, 18]: 95 | Plant response rating, Foxtail, Green [3, 17]: 98 | Plant response rating, Johnsongrass [4, 14]: 80 | Johnsongrass plant response rating (0 to 100 scale) [4, 18]: 95 | Plant response rating, Johnsongrass [4, 17]: 98 | Plant response rating, Kochia [5, 14]: 75 | Kochia plant response rating (0 to 100 scale) [5, 18]: 85 | Plant response rating, Kochia [5, 17]: 90 | Plant response rating, Lambsquarters [6, 14]: 98 | Lambsquarters plant response rating (0 to 100 scale) [6, 18]: 98 | Plant response rating, Lambsquarters [6, 17]: 100 | Plant response rating, Crabgrass, Large [7, 14]: 90 | Crabgrass, Large plant response rating (0 to 100 scale) [7, 18]: 90 | Plant response rating, Crabgrass, Large [7, 16]: 90 | Plant response rating, Crabgrass, Large [7, 17]: 95 | Plant response rating, Ragweed [8, 14]: 80 | Ragweed plant response rating (0 to 100 scale) [8, 18]: 85 | Plant response rating, Ragweed [8, 17]: 98 | Plant response rating, Soybean [9, 14]: 80 | Soybean plant response rating (0 to 100 scale) [9, 18]: 85 | Plant response rating, Soybean [9, 17]: 95 | Plant response rating, Velvetleaf [10, 14]: 90 | Velvetleaf plant response rating (0 to 100 scale) [10, 18]: 98 | Plant response rating, Velvetleaf [10, 17]: 98 | Plant response rating, Wheat [11, 14]: 0 | Wheat plant response rating (0 to 100 scale) [11, 18]: 5 | Plant response rating, Wheat [11, 17]: 35 | Plant response rating, Cupgrass, Woolly [12, 14]: 75 | Cupgrass, Woolly plant response rating (0 to 100 scale) [12, 18]: 85 | Plant response rating, Cupgrass, Woolly [12, 16]: 90 | Plant response rating, Cupgrass, Woolly [12, 17]: 90 | Plant response rating, Nutsedge, Yellow [13, 14]: 75 | Nutsedge, Yellow plant response rating (0 to 100 scale) [13, 18]: 85 | Plant response rating, Nutsedge, Yellow [13, 17]: 85

CCCn1c(-c2cc(C)cc(C)c2)ncc(C(=O)C2=C(O)CCCC2=O)c1=O [Compound 156]
Bermudagrass plant response rating (0 to 100 scale) [1, 15]: 90 | Plant response rating, Bermudagrass [1, 19]: 80 | Plant response rating, Bermudagrass [1, 20]: 95 | Plant response rating, Bermudagrass [1, 21]: 98 | Plant response rating, Goosegrass [2, 19]: 65 | Plant response rating, Goosegrass [2, 20]: 70 | Plant response rating, Goosegrass [2, 21]: 80 | Plant response rating, Foxtail, Green [3, 19]: 45 | Plant response rating, Foxtail, Green [3, 20]: 85 | Plant response rating, Foxtail, Green [3, 21]: 85 | Plant response rating, Johnsongrass [4, 19]: 15 | Plant response rating, Johnsongrass [4, 20]: 45 | Plant response rating, Johnsongrass [4, 21]: 65 | Plant response rating, Kochia [5, 19]: 10 | Plant response rating, Kochia [5, 20]: 20 | Plant response rating, Kochia [5, 21]: 25 | Plant response rating, Lambsquarters [6, 19]: 80 | Plant response rating, Lambsquarters [6, 20]: 95 | Plant response rating, Lambsquarters [6, 21]: 100 | Plant response rating, Crabgrass, Large [7, 19]: 45 | Plant response rating, Crabgrass, Large [7, 20]: 65 | Plant response rating, Crabgrass, Large [7, 21]: 80 | Plant response rating, Ragweed [8, 19]: 65 | Plant response rating, Ragweed [8, 20]: 75 | Plant response rating, Ragweed [8, 21]: 90 | Plant response rating, Soybean [9, 19]: 80 | Plant response rating, Soybean [9, 20]: 98 | Plant response rating, Soybean [9, 21]: 98 | Plant response rating, Velvetleaf [10, 19]: 60 | Plant response rating, Velvetleaf [10, 20]: 95 | Plant response rating, Velvetleaf [10, 21]: 100 | Plant response rating, Wheat [11, 19]: 15 | Plant response rating, Wheat [11, 20]: 35 | Plant response rating, Wheat [11, 21]: 45 | Plant response rating, Cupgrass, Woolly [12, 19]: 40 | Plant response rating, Cupgrass, Woolly [12, 20]: 55 | Plant response rating, Cupgrass, Woolly [12, 21]: 65 | Plant response rating, Nutsedge, Yellow [13, 19]: 45 | Plant response rating, Nutsedge, Yellow [13, 20]: 70 | Plant response rating, Nutsedge, Yellow [13, 21]: 75
